According to the NIST ThermoML archive (doi:10.1021/je050348f):
± gives the expanded uncertainty stated by the source.

Assay: osmotic coefficient (dimensionless); mn = molality of the nth substance listed, in mol/kg
Settings: 101 kPa, Liquid, Knauer vapor pressure osmometer

Cc1ccc(S(=O)(=O)[O-])cc1.[Na+] [sodium p-toluenesulfonate] + O
osmotic coefficient (313.15 K, m1 = 0.02): 0.985 ± 0.078
osmotic coefficient (313.15 K, m1 = 0.04): 0.964 ± 0.029
osmotic coefficient (313.15 K, m1 = 0.06): 0.944 ± 0.028
osmotic coefficient (313.15 K, m1 = 0.08): 0.933 ± 0.028
osmotic coefficient (313.15 K, m1 = 0.1): 0.921 ± 0.028
osmotic coefficient (313.15 K, m1 = 0.12): 0.911 ± 0.028
osmotic coefficient (313.15 K, m1 = 0.14): 0.902 ± 0.027
osmotic coefficient (313.15 K, m1 = 0.15): 0.897 ± 0.027
osmotic coefficient (313.15 K, m1 = 0.16): 0.891 ± 0.027
osmotic coefficient (313.15 K, m1 = 0.17): 0.888 ± 0.027
osmotic coefficient (313.15 K, m1 = 0.2): 0.867 ± 0.026
osmotic coefficient (313.15 K, m1 = 0.22): 0.876 ± 0.027
osmotic coefficient (313.15 K, m1 = 0.3): 0.839 ± 0.026
osmotic coefficient (313.15 K, m1 = 0.35): 0.806 ± 0.025
osmotic coefficient (313.15 K, m1 = 0.4): 0.771 ± 0.025
osmotic coefficient (313.15 K, m1 = 0.45): 0.76 ± 0.024
osmotic coefficient (313.15 K, m1 = 0.5): 0.75 ± 0.024
osmotic coefficient (313.15 K, m1 = 0.6): 0.72 ± 0.024
osmotic coefficient (313.15 K, m1 = 0.7): 0.71 ± 0.024
osmotic coefficient (313.15 K, m1 = 0.8): 0.701 ± 0.024
osmotic coefficient (318.15 K, m1 = 0.02): 0.98 ± 0.074
osmotic coefficient (318.15 K, m1 = 0.04): 0.96 ± 0.036
osmotic coefficient (318.15 K, m1 = 0.06): 0.941 ± 0.028
osmotic coefficient (318.15 K, m1 = 0.08): 0.931 ± 0.028
osmotic coefficient (318.15 K, m1 = 0.1): 0.92 ± 0.028
osmotic coefficient (318.15 K, m1 = 0.12): 0.908 ± 0.027
osmotic coefficient (318.15 K, m1 = 0.14): 0.898 ± 0.027
osmotic coefficient (318.15 K, m1 = 0.15): 0.895 ± 0.027
osmotic coefficient (318.15 K, m1 = 0.16): 0.888 ± 0.027
osmotic coefficient (318.15 K, m1 = 0.17): 0.887 ± 0.027
osmotic coefficient (318.15 K, m1 = 0.2): 0.864 ± 0.026
osmotic coefficient (318.15 K, m1 = 0.22): 0.873 ± 0.027
osmotic coefficient (318.15 K, m1 = 0.3): 0.836 ± 0.026
osmotic coefficient (318.15 K, m1 = 0.35): 0.803 ± 0.025
osmotic coefficient (318.15 K, m1 = 0.4): 0.76 ± 0.024
osmotic coefficient (318.15 K, m1 = 0.45): 0.756 ± 0.024
osmotic coefficient (318.15 K, m1 = 0.5): 0.743 ± 0.024
osmotic coefficient (318.15 K, m1 = 0.6): 0.711 ± 0.024
osmotic coefficient (318.15 K, m1 = 0.7): 0.685 ± 0.023
osmotic coefficient (318.15 K, m1 = 0.8): 0.683 ± 0.023
osmotic coefficient (323.15 K, m1 = 0.02): 0.968 ± 0.07
osmotic coefficient (323.15 K, m1 = 0.04): 0.956 ± 0.029
osmotic coefficient (323.15 K, m1 = 0.06): 0.939 ± 0.028
osmotic coefficient (323.15 K, m1 = 0.08): 0.928 ± 0.028
osmotic coefficient (323.15 K, m1 = 0.1): 0.916 ± 0.028
osmotic coefficient (323.15 K, m1 = 0.12): 0.904 ± 0.027
osmotic coefficient (323.15 K, m1 = 0.14): 0.894 ± 0.027
osmotic coefficient (323.15 K, m1 = 0.15): 0.892 ± 0.027
osmotic coefficient (323.15 K, m1 = 0.16): 0.885 ± 0.027
osmotic coefficient (323.15 K, m1 = 0.17): 0.882 ± 0.027
osmotic coefficient (323.15 K, m1 = 0.2): 0.86 ± 0.026
osmotic coefficient (323.15 K, m1 = 0.22): 0.869 ± 0.026
osmotic coefficient (323.15 K, m1 = 0.3): 0.831 ± 0.026
osmotic coefficient (323.15 K, m1 = 0.35): 0.8 ± 0.025
osmotic coefficient (323.15 K, m1 = 0.4): 0.755 ± 0.024
osmotic coefficient (323.15 K, m1 = 0.45): 0.75 ± 0.024
osmotic coefficient (323.15 K, m1 = 0.5): 0.739 ± 0.024
osmotic coefficient (323.15 K, m1 = 0.6): 0.696 ± 0.023
osmotic coefficient (323.15 K, m1 = 0.7): 0.676 ± 0.023
osmotic coefficient (323.15 K, m1 = 0.8): 0.674 ± 0.023
